Consider eleven molecules from ChEMBL document CHEMBL5352417, “Design, synthesis, and biological evaluation of aromatic tertiary amine derivatives as selective butyrylcholinesterase inhibitors for the treatment of Alzheimer's disease” (Eur J Med Chem, 2022).

Activity calls are given as the source filed them. The calls are words filed in the database; no cut-off is given here.

Series [1] in a line: Neurotoxicity against human SH-SY5Y cells incubated for 24 hrs by MTT assay. Format: toxicity, cell-based. To be noted: read-out: LD50.
Series [2] in a line: Effective permeability of compound at 25 ug/ml incubated for 18 hrs by PAMPA-BBB assay. Format: ADME. To be noted: dose 25 µg/ml, read-out: Peff. (In general: PAMPA measures passive passage across an artificial lipid membrane.)
Series [3] has as its target Acetylcholinesterase (Electrophorus electricus) (UniProt O42275). As to the kind of experiment: Inhibition of electric eel AchE using acetylthiocholine iodide as substrate at <10 uM measured for 3 mins by Ellman's method relative to control.
Series [4] concerns the target Cholinesterase (Equus caballus, UniProt P81908). As to the kind of experiment: Inhibition of horse serum BuChE using butyrylthiocholine iodide as substrate measured for 3 mins by Ellman's method. Format: cell-free. Background: In Ellman's method for cholinesterases, released thiocholine reacts with DTNB.
The target in series [5] is Cholinesterase (Equus caballus) (UniProt P81908). As to the kind of experiment: Inhibition of horse serum BuChE using butyrylthiocholine iodide as substrate at <10 uM measured for 3 mins by Ellman's method relative to control. Format: cell-free.
Sequence of Cholinesterase (Equus caballus) (P81908 whole entry): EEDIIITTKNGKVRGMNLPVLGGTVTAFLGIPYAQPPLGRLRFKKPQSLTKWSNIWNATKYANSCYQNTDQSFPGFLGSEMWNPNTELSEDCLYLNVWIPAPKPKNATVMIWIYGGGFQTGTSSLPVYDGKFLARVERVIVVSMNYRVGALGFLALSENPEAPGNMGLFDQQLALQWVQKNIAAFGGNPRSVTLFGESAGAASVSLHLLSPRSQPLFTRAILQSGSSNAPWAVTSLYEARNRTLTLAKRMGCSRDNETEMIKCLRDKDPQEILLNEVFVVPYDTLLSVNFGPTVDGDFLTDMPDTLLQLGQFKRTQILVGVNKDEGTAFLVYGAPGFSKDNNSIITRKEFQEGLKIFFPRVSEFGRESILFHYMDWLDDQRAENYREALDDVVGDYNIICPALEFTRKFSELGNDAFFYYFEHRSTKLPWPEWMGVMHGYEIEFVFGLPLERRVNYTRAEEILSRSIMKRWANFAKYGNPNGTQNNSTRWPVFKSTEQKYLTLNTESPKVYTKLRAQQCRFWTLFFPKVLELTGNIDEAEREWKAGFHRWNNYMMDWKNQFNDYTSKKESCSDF
Series [6] in a line: Neurotoxicity against mouse BV-2 cells incubated for 24 hrs by MTT assay. Type of series: toxicity, cell-based. The settings on record: read-out: LD50. A general note: Tetrazolium assays rely on reduction of a dye to a coloured formazan, in cell work by metabolically active cells.
A short description of series [7]: Neurotoxicity against mouse HT-22 cells incubated for 24 hrs by MTT assay. Type of series: toxicity, cell-based. The settings on record: read-out: LD50.
Series [8] is described as follows: Neurotoxicity against rat PC12 cells incubated for 24 hrs by MTT assay. Type of series: toxicity, cell-based, PC-12. The settings on record: read-out: LD50.
Series [9] relates to Mus musculus. As to the kind of experiment: Antialzheimer activity against amyloid beta (1 to 42)-induced mouse model of cognitive dysfunction assessed as reduction in latency time at 15 mg/kg, po measured for 14 days by Morris Water maze method. Format: functional, organism-based. The settings on record: ICR, time 14.0 day.
A short description of series [10]: Neurotoxicity against human SH-SY5Y cells assessed as survival rate incubated for 24 hrs by MTT assay relative to control. Format: toxicity, cell-based. Also on record: concentration or dose not given beside the values. The settings on record: read-out: Survival.
Series [11] deals with T1, Cholinesterase (Homo sapiens, UniProt P06276). As to the kind of experiment: Inhibition of human BChE using butyrylthiocholine iodide as substrate measured for 3 mins by Ellman's method.
T1 sequence (P06276 whole entry): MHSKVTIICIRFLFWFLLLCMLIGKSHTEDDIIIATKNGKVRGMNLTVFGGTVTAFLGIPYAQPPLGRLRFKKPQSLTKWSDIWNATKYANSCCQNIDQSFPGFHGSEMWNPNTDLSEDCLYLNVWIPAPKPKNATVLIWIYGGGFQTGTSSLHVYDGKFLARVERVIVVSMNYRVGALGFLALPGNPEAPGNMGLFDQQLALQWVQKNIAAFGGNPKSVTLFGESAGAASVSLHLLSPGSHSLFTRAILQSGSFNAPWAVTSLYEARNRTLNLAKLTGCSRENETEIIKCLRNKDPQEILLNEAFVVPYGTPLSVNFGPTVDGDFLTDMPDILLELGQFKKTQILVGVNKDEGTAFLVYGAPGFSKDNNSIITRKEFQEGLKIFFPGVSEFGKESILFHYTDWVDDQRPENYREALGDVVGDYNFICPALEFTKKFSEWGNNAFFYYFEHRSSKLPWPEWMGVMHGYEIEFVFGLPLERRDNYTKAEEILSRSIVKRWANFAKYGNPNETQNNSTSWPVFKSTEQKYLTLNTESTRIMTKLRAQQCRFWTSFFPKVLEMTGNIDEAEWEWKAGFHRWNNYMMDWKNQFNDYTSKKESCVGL
Series [12] relates to Mus musculus. As to the kind of experiment: Antialzheimer activity against amyloid beta (1 to 42)-induced mouse model of cognitive dysfunction assessed as reaching target platform at 15 mg/kg, po measured for 14 days by Morris Water maze method. Type of series: functional, organism-based. To be noted: ICR, time 14.0 day.
Series [13] is described as follows: Neurotoxicity against rat PC12 cells assessed as survival rate incubated for 24 hrs by MTT assay relative to control. Format: toxicity, cell-based, PC-12. On the set-up: concentration or dose not given beside the values. To be noted: read-out: Survival.
The test system of series [14] is SH-SY5Y. As to the kind of experiment: Neuroprotective activity against amyloid beta (1 to 42)-induced injury in human SH-SY5Y cells assessed as cell viability at 0.5 to 50 uM by MTT assay. Format: functional, cell-based. To be noted: dose 0.5-50 µM.
Series [15] is described as follows: Neurotoxicity against mouse HT-22 cells assessed as survival rate incubated for 24 hrs by MTT assay relative to control. Format: toxicity, cell-based. Also on record: concentration or dose not given beside the values. To be noted: read-out: Survival.
For series [16], the system named is Mus musculus. In words: Antialzheimer activity against amyloid beta (1 to 42)-induced mouse model of cognitive dysfunction assessed as latency time at 15 mg/kg, po measured for 14 days by Morris Water maze method. Type of series: functional, ICR. To be noted: time 14 day.
In series [17] the target is Cholinesterase (Mus musculus, UniProt Q03311).
Sequence of Cholinesterase (Mus musculus, UniProt Q03311) (Q03311 whole entry): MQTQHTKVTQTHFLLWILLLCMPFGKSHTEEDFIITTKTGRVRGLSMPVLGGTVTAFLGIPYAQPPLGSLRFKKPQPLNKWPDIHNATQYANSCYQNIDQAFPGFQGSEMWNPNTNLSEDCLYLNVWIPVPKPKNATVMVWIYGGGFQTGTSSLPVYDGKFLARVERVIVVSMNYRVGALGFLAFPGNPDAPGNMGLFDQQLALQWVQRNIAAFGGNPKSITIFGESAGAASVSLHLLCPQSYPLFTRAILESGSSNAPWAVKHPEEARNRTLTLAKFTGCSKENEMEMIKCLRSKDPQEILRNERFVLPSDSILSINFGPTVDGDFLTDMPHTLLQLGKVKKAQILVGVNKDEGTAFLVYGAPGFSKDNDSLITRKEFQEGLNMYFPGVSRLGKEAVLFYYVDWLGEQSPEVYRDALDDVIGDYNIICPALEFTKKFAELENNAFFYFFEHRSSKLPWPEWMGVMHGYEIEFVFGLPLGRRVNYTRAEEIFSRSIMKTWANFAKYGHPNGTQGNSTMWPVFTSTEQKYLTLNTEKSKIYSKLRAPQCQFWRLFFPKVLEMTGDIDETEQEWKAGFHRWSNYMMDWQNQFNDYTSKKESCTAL
Description: Inhibition of mouse BChE by Ellman's method
Series [18] can be described thus: Acute toxicity in fasted ICR mouse assessed as change in animal growth at 1 g/kg, po administered on day 1 followed by food supply after 2 hrs post compound administration measured after few days after first day administration. Format: organism-based. The settings on record: in vivo, 1000 mg/kg.
Series [19] is described as follows: Acute toxicity in fasted ICR mouse assessed as animal death at 1 g/kg, po followed by food supply after 2 hrs post compound administration measured for 14 days. Format: organism-based. To be noted: in vivo, 1000 mg/kg, 336 h, time 14 day.
The target in series [20] is T1, Cholinesterase. As to the kind of experiment: Non-competitive inhibition of BChE (unknown origin) using butyrylthiocholine iodide as substrate upto 400 nM measured for 5 mins by Lineweaver-Burk plot analysis.
Series [21] in a line: Acute toxicity in fasted ICR mouse assessed as obvious toxicity at 1 g/kg, po followed by food supply after 2 hrs post compound administration measured for 14 days. Type of series: organism-based. The settings on record: in vivo, 1000 mg/kg, 336 h, time 14 day.
For series [22], the system named is SH-SY5Y. As to the kind of experiment: Neuroprotective activity against amyloid beta (1 to 42)-induced injury in human SH-SY5Y cells assessed as cell viability by MTT assay. Type of series: functional, cell-based. The settings on record: dose 0.5-50 µM.

Sequence of Acetylcholinesterase (Electrophorus electricus) (O42275 24-633 limits assumed): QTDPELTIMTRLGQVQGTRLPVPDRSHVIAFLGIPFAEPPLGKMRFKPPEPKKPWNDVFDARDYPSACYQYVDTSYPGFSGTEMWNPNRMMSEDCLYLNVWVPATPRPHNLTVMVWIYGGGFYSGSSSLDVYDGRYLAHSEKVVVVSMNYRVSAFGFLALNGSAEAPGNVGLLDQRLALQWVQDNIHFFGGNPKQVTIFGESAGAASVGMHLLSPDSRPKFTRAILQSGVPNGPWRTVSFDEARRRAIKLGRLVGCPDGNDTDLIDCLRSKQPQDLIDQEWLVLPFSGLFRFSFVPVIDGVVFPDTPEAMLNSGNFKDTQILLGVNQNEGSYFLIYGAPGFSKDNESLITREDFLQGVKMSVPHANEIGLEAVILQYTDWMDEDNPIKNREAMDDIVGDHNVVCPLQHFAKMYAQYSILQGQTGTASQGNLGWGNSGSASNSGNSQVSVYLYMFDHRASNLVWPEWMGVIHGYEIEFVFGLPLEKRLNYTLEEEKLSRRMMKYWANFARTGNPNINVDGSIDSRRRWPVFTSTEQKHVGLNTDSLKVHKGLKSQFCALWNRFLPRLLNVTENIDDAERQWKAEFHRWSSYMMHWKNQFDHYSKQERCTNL
Sequence of Cholinesterase (Equus caballus, UniProt P81908) (P81908 whole entry): as the sequence (P81908 whole entry) above

The inhibition is the relative decrease from the control value, in per cent. What is called IC50 is the concentration that inhibits the measured activity by half. Take `Cc1cccc(NC(=O)CN(Cc2ccccc2)Cc2ccco2)c1C`: the CC50 at 24 h in [1] amounted to 35 µM; in [6] it was 16.6 µM; in [7] it was 46.8 µM; in series [8], 32.1 µM. In addition, the Papp at 18 h, 25 ug/ml in series [2] worked out at 9.47 ×10⁻⁶ cm/s. Moreover, the inhibition is 19.7% in series [3] and 61.9% in series [5]. Moreover, the IC50 against Cholinesterase [4] amounted to 2.67 µM.
In the case of `COc1cc2c(cc1OC)C(=O)C(CC1CCN(Cc3ccccc3)CC1)C2` (stereo unspecified), the result with Mus musculus [9] was Active.
Take `CCCN(CCCc1ccccc1)Cc1ccc2ccccc2c1`: the Papp at 18 h, 25 ug/ml in [2] is 10.3 ×10⁻⁶ cm/s. Also, the inhibition came out at 21.4% in series [3] and 80.3% in series [5]. Besides, the concentration for half-maximal inhibition (IC50) on Cholinesterase [4] was found to be 1.45 µM; against Cholinesterase [11] it was 0.03 µM. In addition, in [10], the viability at 24 h is 62.6%. Besides, the CC50 at 24 h is 29 µM in series [6], 54.6 µM in series [7] and 77.8 µM in series [8].
`CCCCN(CCCc1ccccc1)Cc1ccc2ccccc2c1`: the Papp at 18 h, 25 ug/ml in series [2] came out at 10.1 ×10⁻⁶ cm/s. Also, in the series with Mus musculus [12], the result was Active. Moreover, the viability at 24 h in series [13] turned out to be 51.9%; in series [15] it was 51.2%; in series [10] it was 85.5%. For the same molecule, the figures for the inhibition in series [3] and in series [5] were 23% and 89%, respectively. Also, the outcome with SH-SY5Y [14] was inactive. The results for the IC50 against Cholinesterase [4] and at Cholinesterase [11] were 0.23 µM and 0.011 µM, respectively. Moreover, the CC50 at 24 h in series [6] was found to be 34.4 µM. Besides, in the series on Mus musculus [16], the Time is listed as 14.4 s.
For the molecule `CCCCN(CC(=O)Nc1ccccc1C)Cc1ccc2ccccc2c1`, the results for the CC50 at 24 h in series [1] and in series [6] were 70.2 µM and 19 µM, respectively. For the same molecule, in series [2], the Papp at 18 h, 25 ug/ml is 13.9 ×10⁻⁶ cm/s. Further, the viability at 24 h was 49.1% in [13] and 83.1% in series [15]. In addition, the inhibition in [3] was 21.9%; in series [5], 77.9%. Further, the IC50 on Cholinesterase [4] stood at 1.48 µM; at Cholinesterase [11], 0.18 µM.
As to `O=C(CN(Cc1ccc2ccccc2c1)Cc1ccco1)Nc1ccccc1`, the Papp at 18 h, 25 ug/ml in series [2] came to 7.81 ×10⁻⁶ cm/s. The figures for the viability at 24 h in [13], in [15] and in series [10] were 100%, 86.5% and 90.7%, respectively. The inhibition in series [3] is 16.9%; in series [5] it was 62.9%. Moreover, the IC50 against Cholinesterase [4] amounted to 2.26 µM. Besides, the CC50 at 24 h in series [6] worked out at 14 µM.
As for `CC(C)CN(CCCc1ccccc1)Cc1ccc2ccccc2c1`, the Papp at 18 h, 25 ug/ml in series [2] stood at 9.87 ×10⁻⁶ cm/s. The values for the viability at 24 h in [13], in series [15] and in series [10] were 86.3%, 83.5% and 155%, respectively. The inhibition in [3] was determined as 19.4%; in [5], 54.7%. The IC50 is 4.04 µM at Cholinesterase [4] and 0.024 µM on Cholinesterase [11]. In addition, in series [6], the CC50 at 24 h worked out at 48.7 µM.
As to `COCCN(CC1CCCN(Cc2ccccc2)C1)S(=O)(=O)c1ccc2ccccc2c1` (stereo unspecified), at Cholinesterase [17], the IC50 is > 10 µM.
Turning to `CCN(CC)CCN(CC(=O)Nc1ccccc1C)Cc1ccc2ccccc2c1`, the CC50 at 24 h in series [1] is 50.8 µM; in series [6], 24.2 µM; in series [7], 85.1 µM; in series [8], 40.6 µM. The Papp at 18 h, 25 ug/ml in series [2] was 10.6 ×10⁻⁶ cm/s. For the same molecule, the inhibition stood at 20.1% in series [3] and 85.6% in [5]. Further, the result in the series with SH-SY5Y [14] was inactive. The IC50 against Cholinesterase [4] is 1.45 µM; against Cholinesterase [11], 0.29 µM.
In the case of `O=C(CN(Cc1ccco1)Cc1c[nH]c2ccccc12)Nc1ccccc1`, the CC50 at 24 h was 42.2 µM in series [1], 27.5 µM in series [6], 59.6 µM in [7] and 40.4 µM in [8]. Also, in series [2], the Papp at 18 h, 25 ug/ml is 7.3 ×10⁻⁶ cm/s. Also, the inhibition in [3] is 26.2%; in series [5] it was 65.3%. For the same molecule, the half-maximal inhibitory concentration (IC50) on Cholinesterase [4] is 2.14 µM.
As to `Cc1ccccc1NC(=O)CN(Cc1ccc2ccccc2c1)CC(C)C`, the Papp at 18 h, 25 ug/ml in series [2] was 13.1 ×10⁻⁶ cm/s. The outcome with Mus musculus [12] was Active. The inhibition in series [3] was 22.2%; in [5] it was 94.3%. Further, the Activity entry in [18] was “Toxic”; in series [19], “Non-Toxic”; in series [21], “Non-Toxic”; with SH-SY5Y [22], “Dose-Dependent Effect”. In addition, the half-inhibitory concentration (IC50) against Cholinesterase [4] amounted to 0.22 µM; against Cholinesterase [11] it was 0.016 µM. Besides, the viability at 24 h in [10] worked out at 47.8%. The CC50 at 24 h in series [6] was 39.3 µM; in series [7] it was 18.9 µM; in [8], 78.8 µM. Further, the inhibition entry on Cholinesterase [20] was “Active”. For the same molecule, the Time in the series on Mus musculus [16] stood at 11.4 s.
